We go through 19 compounds from PubChem BioAssay AID248 (DTP/NCI, 2004).

Values joined by “and” are separate entries in the source; they are usually repeats but may differ in a detail not shown here. Equal entries are not always repeated. Toxic doses and inconclusive results are not listed.

The experiment concerns L1210 leukemia ip in BDF1 mice, survival T/C. In words: NCI In Vivo Anticancer Drug Screen. Data for tumor model L1210 Leukemia (intraperitoneal) in B6D2F1 (BDF1) mice. Conditions: endpoint: mean survival time, higher = longer survival. A digest of the protocol:
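Mice bearing the transplanted tumor received compound or vehicle. Survival of the treated group was divided by that of the vehicle-treated control group to give the ratio.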

[1] abbreviates: dose: 100.0 mg/kg/injection, schedule: Q01DX001 (ip), vehicle: saline.
The mark [2] stands for this setting: dose: 200.0 mg/kg/injection, schedule: Q01DX001 (ip), vehicle: saline.
Setting [3] is: dose: 400.0 mg/kg/injection, schedule: Q01DX001 (ip), vehicle: saline.
Setting [4] is: dose: 100.0 mg/kg/injection, schedule: Q04DX002 (ip), vehicle: Klucel (hydroxypropylcellulose) (HPC).
Where [5] appears, read: dose: 200.0 mg/kg/injection, schedule: Q04DX002 (ip), vehicle: Klucel (hydroxypropylcellulose) (HPC).
Setting [6] is: dose: 50.0 mg/kg/injection, schedule: Q01DX009 (ip), vehicle: saline.
Where [7] appears, read: dose: 100.0 mg/kg/injection, schedule: Q01DX009 (ip), vehicle: saline.
Where [8] appears, read: dose: 100.0 mg/kg/injection, schedule: Q04DX003 (ip), vehicle: saline with Tween-80.
The mark [9] stands for this setting: dose: 200.0 mg/kg/injection, schedule: Q04DX003 (ip), vehicle: saline with Tween-80.
Setting [10] is: dose: 400.0 mg/kg/injection, schedule: Q04DX003 (ip), vehicle: saline with Tween-80.
The mark [11] stands for this setting: dose: 100.0 mg/kg/injection, schedule: Q01DX009 (ip), vehicle: saline with Tween-80.
[12] abbreviates: dose: 200.0 mg/kg/injection, schedule: Q01DX009 (ip), vehicle: saline with Tween-80.
Setting [13] is: dose: 100.0 mg/kg/injection, schedule: Q01DX009 (ip), vehicle: Klucel (hydroxypropylcellulose) (HPC).
[14] abbreviates: dose: 100.0 mg/kg/injection, schedule: Q04DX003 (ip), vehicle: Klucel (hydroxypropylcellulose) (HPC).
Setting [15] is: dose: 200.0 mg/kg/injection, schedule: Q01DX009 (ip), vehicle: Klucel (hydroxypropylcellulose) (HPC).
Setting [16] is: dose: 200.0 mg/kg/injection, schedule: Q04DX003 (ip), vehicle: Klucel (hydroxypropylcellulose) (HPC).
The mark [17] stands for this setting: dose: 400.0 mg/kg/injection, schedule: Q01DX009 (ip), vehicle: Klucel (hydroxypropylcellulose) (HPC).
The mark [18] stands for this setting: dose: 400.0 mg/kg/injection, schedule: Q04DX003 (ip), vehicle: Klucel (hydroxypropylcellulose) (HPC).
Where [19] appears, read: dose: 50.0 mg/kg/injection, schedule: Q01DX001 (ip), vehicle: saline.

As to `C=CC1C(OCC)(OCC)CS1(=O)=O` (configuration not stated), the T/C by setting is: under setting [1], 93 % of control; (dose: 100.0 mg/kg/injection, schedule: Q01DX009 (ip), vehicle: acetone) 106 % of control; under setting [2], 98 % of control; (dose: 200.0 mg/kg/injection, schedule: Q01DX009 (ip), vehicle: acetone) 100 % of control; under setting [3], 95 % of control; (dose: 400.0 mg/kg/injection, schedule: Q01DX009 (ip), vehicle: acetone) 106 % of control.

Take `O=C(/C=C/c1ccco1)c1ccc(O)cc1`: the T/C is, setting by setting: under setting [4], 101 % of control; under setting [5], 90 % of control; (dose: 400.0 mg/kg/injection, schedule: Q04DX002 (ip), vehicle: Klucel (hydroxypropylcellulose) (HPC)) 93 % of control.

As to `O=C(O)CNCC(=O)O`, the T/C (dose: 25.0 mg/kg/injection, schedule: Q01DX009 (ip), vehicle: saline) was 103 % of control; the T/C under setting [6] is 90 % of control; the T/C under setting [7] is 93 % of control and 95 % of control; the T/C under setting [8] is 105 % of control; the T/C under setting [9] was 101 % of control; the T/C under setting [10] is 105 % of control.

Regarding `CCCCCCCCC(=O)CCCCCC`, the T/C by setting is: under setting [11], 99 % of control; under setting [8], 105 % of control; under setting [12], 97 % of control; under setting [9], 108 % of control; (dose: 400.0 mg/kg/injection, schedule: Q01DX009 (ip), vehicle: saline with Tween-80) 99 % of control; under setting [10], 101 % of control.

As for `CCCCCCCCCCCCCCCCCC[N+]1(Cc2ccccc2)CCOCC1`, the T/C (dose: 100.0 mg/kg/injection, schedule: Q01DX001 (ip), vehicle: Klucel (hydroxypropylcellulose) (HPC)) was 110 % of control.

For `COC(=O)CCSCCC(=O)OC`, the T/C reads like this: under setting [13], 105 % of control; under setting [14], 103 % of control; under setting [15], 97 % of control; under setting [16], 101 % of control; under setting [17], 95 % of control; under setting [18], 105 % of control.

With `O=[N+]([O-])c1ccc(O)c(C=NCCCN=Cc2cc([N+](=O)[O-])ccc2O)c1`, the T/C runs as follows: under setting [1], 90 % of control; under setting [2], 102 % of control; under setting [3], 96 % of control.

With `NC(=S)NNC(=S)S`, the T/C by setting is: under setting [13], 98 % of control; under setting [15], 98 % of control; under setting [17], 109 % of control.

For the compound `O=c1cc(/C=N/O)c2cccc3c2n1CCC3`, the T/C by setting is: (dose: 100.0 mg/kg/injection, schedule: Q01DX001 (ip), vehicle: saline with Tween-80) 100 % of control; (dose: 200.0 mg/kg/injection, schedule: Q01DX001 (ip), vehicle: saline with Tween-80) 91 % of control; (dose: 400.0 mg/kg/injection, schedule: Q01DX001 (ip), vehicle: saline with Tween-80) 94 % of control.

Consider `CC(C)C1(Cc2ccccc2)C(=O)NC(=S)NC1=O`, for which the T/C is, setting by setting: (dose: 75.0 mg/kg/injection, schedule: Q01DX001 (ip), vehicle: saline) 95 % of control; (dose: 150.0 mg/kg/injection, schedule: Q01DX001 (ip), vehicle: saline) 93 % of control.

Consider `O=C(Cc1ccccc1)ONC(CCCCNC(=O)OCc1ccccc1)C(=O)Nc1ccc(Cc2ccc(NC(=O)C(CCCCNC(=O)OCc3ccccc3)NC(=O)OCc3ccccc3)cc2)cc1` (configuration not stated), for which the T/C reads like this: under setting [19], 95 % of control; under setting [1], 95 % of control; under setting [2], 95 % of control; under setting [3], 95 % of control.

In the case of `O=C(N/N=C\c1ccc(/C=N\NC(=O)c2ccc(O)cc2)cc1)c1ccc(O)cc1`, the T/C runs as follows: (dose: 50.0 mg/kg/injection, schedule: Q01DX009 (ip), vehicle: saline with Tween-80) 112 % of control; under setting [11], 94 % of control; under setting [12], 105 % of control.

In the case of `C1C2OC3CN1CC(O2)O3`, the T/C was 97 % of control under setting [6]; 97 % of control under setting [7]; 94 % of control (dose: 200.0 mg/kg/injection, schedule: Q01DX009 (ip), vehicle: saline).

Turning to `CC1(C)Oc2[nH]c(=O)n(-c3ccccc3)c(=O)c2C1c1ccc(Cl)cc1` (configuration not stated), the T/C by setting is: (dose: 12.5 mg/kg/injection, schedule: Q01DX001 (ip), vehicle: saline) 94 % of control; (dose: 12.5 mg/kg/injection, schedule: Q04DX003 (ip), vehicle: acetone) 103 % of control; (dose: 25.0 mg/kg/injection, schedule: Q01DX001 (ip), vehicle: saline) 97 % of control; (dose: 25.0 mg/kg/injection, schedule: Q04DX003 (ip), vehicle: acetone) 86 % of control; (dose: 35.0 mg/kg/injection, schedule: Q01DX009 (ip), vehicle: saline) 94 % of control; under setting [19], 92 % of control. Moreover, the T/C is, setting by setting: (dose: 55.0 mg/kg/injection, schedule: Q01DX009 (ip), vehicle: saline) 96 % of control; (dose: 80.0 mg/kg/injection, schedule: Q01DX009 (ip), vehicle: saline) 106 % of control.

In the case of `Cc1c2ccncc2c(C)c2c1sc1ccccc12`, the T/C by setting is: (dose: 5.0 mg/kg/injection, schedule: Q01DX009 (ip), vehicle: Klucel (hydroxypropylcellulose) (HPC)) 106 % of control; (dose: 10.0 mg/kg/injection, schedule: Q01DX009 (ip), vehicle: Klucel (hydroxypropylcellulose) (HPC)) 117 % of control; (dose: 20.0 mg/kg/injection, schedule: Q01DX009 (ip), vehicle: Klucel (hydroxypropylcellulose) (HPC)) 124 % of control; (dose: 20.0 mg/kg/injection, schedule: Q01DX009 (ip), vehicle: other) 113 % of control; (dose: 31.0 mg/kg/injection, schedule: Q01DX001 (ip), vehicle: other) 105 % of control; (dose: 62.0 mg/kg/injection, schedule: Q01DX001 (ip), vehicle: other) 111 % of control. The T/C is, setting by setting: (dose: 80.0 mg/kg/injection, schedule: Q01DX009 (ip), vehicle: other) 121 % of control; (dose: 125.0 mg/kg/injection, schedule: Q01DX001 (ip), vehicle: other) 121 % of control; (dose: 250.0 mg/kg/injection, schedule: Q01DX001 (oral), vehicle: other) 112 % of control; (dose: 500.0 mg/kg/injection, schedule: Q01DX001 (ip), vehicle: other) 187 % of control; (dose: 500.0 mg/kg/injection, schedule: Q01DX001 (oral), vehicle: other) 112 % of control.

`O=C(Cn1ccc(O)cc1=O)N1CCOCC1`: the T/C is 105 % of control (dose: 100.0 mg/kg/injection, schedule: Q01DX009 (ip), vehicle: water); 101 % of control (dose: 100.0 mg/kg/injection, schedule: Q04DX003 (ip), vehicle: water); 100 % of control (dose: 200.0 mg/kg/injection, schedule: Q01DX009 (ip), vehicle: water); 106 % of control (dose: 200.0 mg/kg/injection, schedule: Q04DX003 (ip), vehicle: water); 103 % of control (dose: 400.0 mg/kg/injection, schedule: Q01DX009 (ip), vehicle: water); 94 % of control (dose: 400.0 mg/kg/injection, schedule: Q04DX003 (ip), vehicle: water).

For the compound `CSc1nc(NC(=O)CCl)cc(=O)[nH]1`, the T/C was 93 % of control and 97 % of control and 89 % of control (dose: 25.0 mg/kg/injection, schedule: Q01DX009 (ip), vehicle: Klucel (hydroxypropylcellulose) (HPC)); 97 % of control and 89 % of control under setting [13]; 90 % of control under setting [14]; 98 % of control under setting [16]; 102 % of control under setting [18].

For the compound `Cc1ccc(S(=O)(=O)OCCCCCCCCCCCCCCOS(=O)(=O)c2ccc(C)cc2)cc1`, the T/C under setting [13] was 97 % of control; the T/C under setting [14] is 97 % of control; the T/C under setting [15] is 98 % of control; the T/C under setting [16] was 96 % of control; the T/C under setting [17] is 106 % of control; the T/C under setting [18] is 92 % of control.

Consider `CC(C)(C)Nc1ccc(F)cc1`, for which the T/C was 106 % of control under setting [4] and 95 % of control under setting [5].
